The results in this text go back to PubChem BioAssay AID1259407 (Chemical Carcinogenesis Research Information System (CCRIS), 2018).

The test system of this data set is CCRIS mutagenicity, Ames/micronucleus/aberration tests. The data set is described as follows: CCRIS mutagenicity studies.
Setting [1] is: Test System: AMES SALMONELLA TYPHIMURIUM, Strain/Indicator: TA98, Metabolic Activation: NONE, Method: STANDARD PLATE.
[2] abbreviates: Test System: AMES SALMONELLA TYPHIMURIUM, Strain/Indicator: TA100, Metabolic Activation: NONE, Method: STANDARD PLATE.

Calls of active or inactive are those of the source. The rule behind the calls is not given here.

Consider `COc1cc(-c2ccc(N/N=C3\C=C(S(=O)(=O)O)c4ccccc4C3=O)c(OC)c2)ccc1N=Nc1cc(S(=O)(=O)O)c2ccccc2c1N`, for which the mutagenic call is, setting by setting: (Test System: AMES SALMONELLA TYPHIMURIUM, Strain/Indicator: TA97, Metabolic Activation: HAMSTER, LIVER, S-9, AROCLOR 1254 (10 OR 30%), Method: PREINCUBATION) “inactive; negative”; (Test System: AMES SALMONELLA TYPHIMURIUM, Strain/Indicator: TA97, Metabolic Activation: NONE, Method: PREINCUBATION) “inactive; negative”; (Test System: AMES SALMONELLA TYPHIMURIUM, Strain/Indicator: TA97, Metabolic Activation: RAT, LIVER, S-9, AROCLOR 1254 (10 OR 30%), Method: PREINCUBATION) “inactive; negative”; (Test System: AMES SALMONELLA TYPHIMURIUM, Strain/Indicator: TA98, Metabolic Activation: HAMSTER, LIVER, S-9, AROCLOR 1254 (10 OR 30%), Method: PREINCUBATION) “inactive; negative”; (Test System: AMES SALMONELLA TYPHIMURIUM, Strain/Indicator: TA98, Metabolic Activation: NONE, Method: PREINCUBATION) “inactive; negative”; (Test System: AMES SALMONELLA TYPHIMURIUM, Strain/Indicator: TA98, Metabolic Activation: RAT, LIVER, S-9, AROCLOR 1254 (10 OR 30%), Method: PREINCUBATION) “inactive; negative”. Moreover, the mutagenic call is “inactive; negative” (Test System: AMES SALMONELLA TYPHIMURIUM, Strain/Indicator: TA100, Metabolic Activation: HAMSTER, LIVER, S-9, AROCLOR 1254 (10 OR 30%), Method: PREINCUBATION); “inactive; negative” (Test System: AMES SALMONELLA TYPHIMURIUM, Strain/Indicator: TA100, Metabolic Activation: NONE, Method: PREINCUBATION); “inactive; negative” (Test System: AMES SALMONELLA TYPHIMURIUM, Strain/Indicator: TA100, Metabolic Activation: RAT, LIVER, S-9, AROCLOR 1254 (10 OR 30%), Method: PREINCUBATION); “inactive; negative” (Test System: AMES SALMONELLA TYPHIMURIUM, Strain/Indicator: TA1535, Metabolic Activation: HAMSTER, LIVER, S-9, AROCLOR 1254 (10 OR 30%), Method: PREINCUBATION); “inactive; negative” (Test System: AMES SALMONELLA TYPHIMURIUM, Strain/Indicator: TA1535, Metabolic Activation: NONE, Method: PREINCUBATION); “inactive; negative” (Test System: AMES SALMONELLA TYPHIMURIUM, Strain/Indicator: TA1535, Metabolic Activation: RAT, LIVER, S-9, AROCLOR 1254 (10 OR 30%), Method: PREINCUBATION). Moreover, the mutagenic call is, setting by setting: (Test System: AMES SALMONELLA TYPHIMURIUM, Strain/Indicator: TA1538, Metabolic Activation: HAMSTER, LIVER, S-9, Method: STANDARD PLATE) “inactive; negative”; (Test System: AMES SALMONELLA TYPHIMURIUM, Strain/Indicator: TA1538, Metabolic Activation: RAT, LIVER, S-9, AROCLOR 1254, Method: STANDARD PLATE) “inactive; negative”.
As to `C=CCOc1ccccc1OCC(O)CN(N=O)C(C)C` (centres undefined), the mutagenic call is “inactive; negative” (Test System: CHINESE HAMSTER V-79, Strain/Indicator: V-79/6-THIOGUANINE, Metabolic Activation: NONE, Method: REPLATING); “active; positive” (Test System: CHINESE HAMSTER V-79, Strain/Indicator: V-79/6-THIOGUANINE, Metabolic Activation: RAT, HEPATOCYTES, Method: REPLATING); “inactive; negative” (Test System: CHINESE HAMSTER V-79, Strain/Indicator: V-79/OUABAIN, Metabolic Activation: NONE); “inactive; negative” (Test System: CHINESE HAMSTER V-79, Strain/Indicator: V-79/OUABAIN, Metabolic Activation: RAT, HEPATOCYTES); “active; positive” (Test System: UDS HUMAN HEPATOCYTES, Strain/Indicator: THY INCORP, Metabolic Activation: NONE, Method: AUTORADIOGRAPHY); “active; positive” (Test System: UDS RAT HEPATOCYTES, Strain/Indicator: THY INCORP, Metabolic Activation: NONE, Method: AUTORADIOGRAPHY).
On to `CN(Cc1ccc(C(=O)O)cc1)N=O`, for which the mutagenic call is, setting by setting: (Test System: AMES SALMONELLA TYPHIMURIUM, Strain/Indicator: TA1535, Metabolic Activation: HAMSTER, LIVER, S-9, AROCLOR 1254, Method: STANDARD PLATE) “inactive; negative”; (Test System: AMES SALMONELLA TYPHIMURIUM, Strain/Indicator: TA1535, Metabolic Activation: NONE, Method: STANDARD PLATE) “inactive; negative”.
Consider `Fc1cnc2c(ccc3ccccc32)c1`, for which the mutagenic call (Test System: AMES SALMONELLA TYPHIMURIUM, Strain/Indicator: TA100, Metabolic Activation: RAT, LIVER, S-9, PHENOBARBITAL AND 5,6-BENZOFLAVONE, Method: PREINCUBATION) was “inactive; negative”.
Regarding `COC(=O)c1ccc([N+](=O)[O-])c2c(NCCCN(C)C)c3ccccc3nc12`, the mutagenic call is, setting by setting: under setting [1], “active; positive”; under setting [2], “active; positive”.
`CC(/C=C(/C#N)c1ccc(Cl)c(Cl)c1)C(c1ccccc1)C(C#N)c1ccc(Cl)c(Cl)c1` (centres undefined): the mutagenic call under setting [2] was “active; positive”.
As for `CC(Cl)(Cl)Cl`, the mutagenic call runs as follows: (End Point: IN VITRO CHROMOSOMAL ABERRATIONS, Test System: CHINESE HAMSTER OVARY CELLS, Metabolic Activation: NONE) “active; positive”; (End Point: IN VITRO CHROMOSOMAL ABERRATIONS, Test System: CHINESE HAMSTER OVARY CELLS, Metabolic Activation: RAT, LIVER, S-9, AROCLOR 1254) “inactive; negative”; (End Point: In vitro chromosomal aberrations, Test System: Chinese hamster lung (CHL/IU) cells, Metabolic Activation: Rat, Liver, S9, Phenobarbital and 5,6-benzoflavone) “inactive; negative (structural changes and ploidy showed weak response without dose respon”; (Test System: AMES SALMONELLA TYPHIMURIUM, Strain/Indicator: TA97, Metabolic Activation: NONE, Method: STANDARD PLATE) “active; positive”; (Test System: AMES SALMONELLA TYPHIMURIUM, Strain/Indicator: TA97, Metabolic Activation: RAT, LIVER S-9, AROCLOR 1254, Method: STANDARD PLATE) “active; positive”; under setting [1], “active; positive”. Further, the mutagenic call is, setting by setting: (Test System: AMES SALMONELLA TYPHIMURIUM, Strain/Indicator: TA98, Metabolic Activation: RAT, LIVER S-9, AROCLOR 1254, Method: STANDARD PLATE) “active; positive”; under setting [2], “active; positive”; (Test System: AMES SALMONELLA TYPHIMURIUM, Strain/Indicator: TA100, Metabolic Activation: NONE, Method: VAPOR CHAMBER) “active; positive”; (Test System: AMES SALMONELLA TYPHIMURIUM, Strain/Indicator: TA100, Metabolic Activation: RAT, LIVER S-9, AROCLOR 1254, Method: STANDARD PLATE) “inactive; negative”; (Test System: AMES SALMONELLA TYPHIMURIUM, Strain/Indicator: TA100, Metabolic Activation: RAT, LIVER, S-9, AROCLOR 1254, Method: DESICCATOR) “active; positive”; (Test System: AMES SALMONELLA TYPHIMURIUM, Strain/Indicator: TA100, Metabolic Activation: RAT, LIVER, S-9, AROCLOR 1254, Method: VAPOR CHAMBER) “active; positive”. For the same compound, the mutagenic call was “inactive; negative” (Test System: AMES SALMONELLA TYPHIMURIUM, Strain/Indicator: TA104, Metabolic Activation: NONE, Method: STANDARD PLATE); “active; positive” (Test System: AMES SALMONELLA TYPHIMURIUM, Strain/Indicator: TA104, Metabolic Activation: RAT, LIVER, S-9, AROCLOR 1254, Method: STANDARD PLATE); “active; positive” (Test System: AMES SALMONELLA TYPHIMURIUM, Strain/Indicator: TA1535, Metabolic Activation: NONE, Method: VAPOR CHAMBER); “active; positive” (Test System: AMES SALMONELLA TYPHIMURIUM, Strain/Indicator: TA1535, Metabolic Activation: RAT, LIVER, S-9, AROCLOR 1254, Method: VAPOR CHAMBER).
In the case of `Cc1ccc(NC(=O)c2csc([N+](=O)[O-])c2)cc1`, the mutagenic call by setting is: under setting [1], “active; positive”; under setting [2], “active; positive”.
